SMILES strings stand for the structures.

For one data set, the target named is 5-HT1A receptor (Homo sapiens (Human), UniProt P08908). Kind of data set: 5-HT1A receptor binding test. To be noted: read-out: Affinity of the compound to 5-HT1A receptor, Ki value. The procedure: Cells: HEK-293 cells stably expressing 5-HT1A receptors as obtained by gene recombination are cultured for 3-5 days in cell culture medium DMEM supplemented with 10% serum.
Competitive inhibition ratio of each compound at the concentration of 10 μmol/L to inhibit the binding of [^3H]8-OH-DPAT to 5-HT1A receptor is determined for primary screening.
The components are mixed to homogeneity, and then the above tubes are transferred to water bath at 30° C. (1 h), removed into ice bath immediately, and suction filtered on Harvest (with ice cold Tris eluate for 5 times).

The subject of data set [1] is Apo.-induced schizophrenic mouse model. Kind of data set: Apomorphine-induced schizophrenic mouse model, stereotyped behaviors. It counts as in vivo. As to conditions: single oral administration, Apo.-induced model. Here is the method:
The drugs are administered by gastric gavage. The model control group is given the same volume of solvent by gastric gavage.
Total score of the stereotyped behaviors of the mice such as tail erection and wall-climbing in the 60 minutes is calculated.
The clinical response symptoms of the animals shall be recorded during the administration and test procedures.

For a further data set, the target named is 5-HT2A receptor (Homo sapiens (Human), UniProt P28223). Description: 5-HT2A receptor binding test. As to conditions: read-out: Affinity of the compound to 5-HT2A receptor, Ki value; [3H]-Ketanserin, 5-HT2A receptor expressed in HEK293 cells. From the text: (§1) Beckman LS-6500 multifunction liquid scintillation counter.
Sequence of 5-HT2A receptor (P28223 whole entry): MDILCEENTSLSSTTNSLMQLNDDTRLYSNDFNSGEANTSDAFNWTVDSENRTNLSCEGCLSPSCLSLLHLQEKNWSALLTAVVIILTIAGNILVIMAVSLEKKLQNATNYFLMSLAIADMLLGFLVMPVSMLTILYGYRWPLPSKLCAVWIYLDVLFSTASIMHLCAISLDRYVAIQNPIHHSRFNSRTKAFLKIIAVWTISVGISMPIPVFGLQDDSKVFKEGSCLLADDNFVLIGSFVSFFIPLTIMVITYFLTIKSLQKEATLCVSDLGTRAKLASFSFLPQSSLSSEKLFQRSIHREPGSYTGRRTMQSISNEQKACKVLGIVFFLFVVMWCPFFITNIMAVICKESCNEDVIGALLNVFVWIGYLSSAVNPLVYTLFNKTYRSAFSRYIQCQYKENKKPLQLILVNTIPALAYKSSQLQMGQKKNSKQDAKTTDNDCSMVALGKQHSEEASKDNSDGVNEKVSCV
Data set [2] has as its target human recombinant D3 receptor (Homo sapiens (Human), UniProt P35462). Kind of data set: Dopamine D3 receptor binding test. As to conditions: read-out: Affinity of the compound to D3 receptor, Ki value. The procedure: With [^3H]methyl-spiperone (0.3 nM) as the ligand and (+)-butaclamol (10 LM) for determining non-specific binding, binding tests are carried out on human recombinant D3 receptor (expressed in CHO cells).

Data set [3] concerns MK-801-induced schizophrenic mouse model. Description: MK-801-induced schizophrenic mouse model, open-field movement. As to conditions: single oral administration, MK-801-induced model.
A further data set has as its target D2 receptor (Homo sapiens (Human), UniProt P14416). Kind of data set: Dopamine D2 receptor binding test. To be noted: read-out: Affinity of the compound to D2 receptor, Ki value.
Text: This experiment utilizes the plasmid vector containing the gene of D2 receptor protein for transfecting HEK293 cells by calcium phosphate transfection method.
as §1

For data set [4], the system named is Salmonella typhimurium TA98 and TA100. Kind of data set: Bacterial reverse mutation test (Ames). To be noted: TA98 and TA100, with or without S9.

Sequence of human recombinant D3 receptor (P35462 whole entry): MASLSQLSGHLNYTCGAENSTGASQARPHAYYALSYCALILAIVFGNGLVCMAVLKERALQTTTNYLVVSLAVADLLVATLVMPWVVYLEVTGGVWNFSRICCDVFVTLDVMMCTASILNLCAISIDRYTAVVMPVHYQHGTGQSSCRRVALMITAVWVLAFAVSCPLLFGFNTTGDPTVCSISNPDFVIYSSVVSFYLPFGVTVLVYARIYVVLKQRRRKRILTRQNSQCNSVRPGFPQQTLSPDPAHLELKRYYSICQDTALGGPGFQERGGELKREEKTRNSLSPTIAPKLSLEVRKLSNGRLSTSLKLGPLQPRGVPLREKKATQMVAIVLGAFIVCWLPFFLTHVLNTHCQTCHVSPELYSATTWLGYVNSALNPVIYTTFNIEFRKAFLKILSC
Sequence of D2 receptor (P14416 whole entry): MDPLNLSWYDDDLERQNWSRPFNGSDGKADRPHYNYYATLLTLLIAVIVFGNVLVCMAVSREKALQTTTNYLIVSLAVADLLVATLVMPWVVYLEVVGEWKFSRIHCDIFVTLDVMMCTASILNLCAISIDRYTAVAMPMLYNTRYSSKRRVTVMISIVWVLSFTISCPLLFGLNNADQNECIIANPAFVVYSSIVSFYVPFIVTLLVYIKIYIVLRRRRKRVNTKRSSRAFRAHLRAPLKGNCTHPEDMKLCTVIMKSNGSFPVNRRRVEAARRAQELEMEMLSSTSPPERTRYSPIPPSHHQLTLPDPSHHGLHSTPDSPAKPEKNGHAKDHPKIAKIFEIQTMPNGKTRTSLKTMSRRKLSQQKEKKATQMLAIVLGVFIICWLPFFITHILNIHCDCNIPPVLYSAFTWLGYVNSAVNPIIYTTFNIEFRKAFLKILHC
Sequence of 5-HT1A receptor (P08908 whole entry): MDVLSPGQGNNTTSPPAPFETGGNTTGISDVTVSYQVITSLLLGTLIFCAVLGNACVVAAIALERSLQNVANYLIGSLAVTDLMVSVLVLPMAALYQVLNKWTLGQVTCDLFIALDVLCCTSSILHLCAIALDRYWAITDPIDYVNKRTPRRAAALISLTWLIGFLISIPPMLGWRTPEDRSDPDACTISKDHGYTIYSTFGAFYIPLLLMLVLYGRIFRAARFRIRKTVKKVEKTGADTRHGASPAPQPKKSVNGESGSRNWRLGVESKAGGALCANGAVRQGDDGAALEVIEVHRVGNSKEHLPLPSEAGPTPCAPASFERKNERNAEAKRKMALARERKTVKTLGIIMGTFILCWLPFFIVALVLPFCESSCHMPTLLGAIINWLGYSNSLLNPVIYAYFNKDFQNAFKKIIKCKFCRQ

As a reminder, the Ki is a measure of affinity in units of concentration, obtained from inhibition or displacement. `O=C(NCc1ccccc1)N[C@H]1CC[C@H](CCN2CCN(c3nsc4ccccc34)CC2)CC1` [IV-11]: the Ki on 5-HT1A receptor came out at 5.3 nM; on 5-HT2A receptor it was 0.91 nM; in data set [2], 0.18 nM; at D2 receptor, 1.4 nM. In addition, in data set [1], the “ED50, inhibition of the total stereotyped behaviors” value stood at 0.53 mg/kg. In addition, the “ED50, total distance of the open-field movement” value in data set [3] worked out at 0.060 mg/kg. Also, the “Ames test result (colonies with reverse mutations)” value in data set [4] is reported as “negative”.

For the origin of these results see patent US9550741B2, “Benzoisothiazole compounds and methods of treating schizophrenia” (SHANGHAI INSTITUTE OF PHARMACEUTICAL INDUSTRY, priority 2013, dated 2017).
